# Like-named read-outs stand apart in the source and are kept apart here.
# Key:
# RV SA11 (G3P[2]) strain = assay: In vitro assay of RV replication inhibition (PFA); format: cell-based, Rotavirus; conditions: MOI = 1, 24 h p.i., PFA, read-out: IC50
# Procedure: (§1) For analysis of effects of different […] on RV replication in vitro, 10,000 MA104 cells, 30,000 Caco-2 cells, and 80,000 HT-29 cells in 100 µL complete DMEM medium were seeded in 96-well plates and cultured at 37°C and 5% CO2 for 24 h. Then the cells were infected with RV Wa or SA11 strains (MOI = 1 (PFU/cell)) for 1 h. After removing the viruses and washing cells two times with DMEM, 100 µL DMEM containing the indicated concentrations of drugs was added to each well, and the plates were incubated at 37°C and 5% CO2. At 24 h p.i., the infected cells and culture medium were collected, frozen/thawed twice, and subjected to centrifugation at 1,000 × g for 3 min at room temperature. Then, the supernatant was subjected to analysis of viral load by PFA. […] Dose-response data (drug concentrations as x-axis and normalized inhibition percentages as y-axis) were fitted to a dose-response inhibition model ([Inhibitor] vs normalized response – Variable slope). […] Model adequacy was validated using goodness-of-fit metrics (R^2 ≥ 0.95), 95% confidence intervals, and residual distribution analysis.
# (§2) Wa/SA11 strains were titrated by PFA, which was carried out as described (3) with some modification. Briefly, confluent monolayers of MA104 cells in 24-well tissue culture plates were infected with 100 µL supernatants containing infectious RV particles which were serially diluted (10^1, 10^2, 10^3, and 10^4) with DMEM containing 1 µg/mL trypsin and penicillin (10,000 U/mL)-streptomycin (5 µg/mL) (DMEM-T) for 1 h at 37°C. Then 400 µL agarose overlay (0.8% agarose in 1×DMEM-T) was added and the plates were incubated at 37℃ and 5% CO2 for 5 days. The cells in each well were fixed by 1 mL 4% paraformaldehyde (Sangon Biotech, China) overnight (> 12 h) at room temperature. Then, the paraformaldehyde and agarose were removed and the monolayers were stained with 0.5 ml of a 1% (v/v) crystal violet (Sangon Biotech, China) diluted in distilled water for 10 min at room temperature. Then, the plates were drained and dried, and the plaques were enumerated. As the EDIM strain is not able to grow in cell culture, it was titrated by qPCR analysis as described (4) with EDIM VP6 gene as the target.
# RV Wa (G1P[8]) strain = assay: In vitro assay of RV replication inhibition (PFA); format: cell-based, Rotavirus; conditions: MOI = 1, 24 h p.i., PFA, read-out: IC50
# Procedure: as §1, §2
# [1] = cited from earlier work
# HSP90β = conditions: targets the N-terminal of HSP90β; cited from earlier work
# RV SA11 strain = assay: RV SA11 diarrhea model in suckling mice; format: in vivo, BALB/c suckling mice; conditions: for infectious RV particles and viral antigens in intestinal contents, transcription of RV VP6 in intestinal epithelial cells: compared to controls
# Procedure: BALB/c mice were purchased from Gempharmatech Inc. (Suzhou, China) and housed under SPF conditions (22 ± 1°C, 12 h light/dark cycle). Suckling mice were obtained by mating male and female adult BALB/c mice (12- to 16-week-old). Only the 7-day-old BALB/c suckling mice with body weights ranging from 2.5 g to 4.5 g were selected for RV diarrhea models. For induction of RV diarrhea, 1 × 10^6 PFU of SA11 strain or 10 × DD50 of EDIM strain in 20 µL PBS was orally inoculated using a pipette tip to 7-day-old BALB/c suckling mice regardless of their sexes, as sex has no significant influence on RV diarrhea occurrence. We used a scoring system to evaluate fecal consistency and color as described with some modification ([27]): no stool or brown formed stool (1 point); brown soft stool (2 points); yellow soft stool (3 points); and yellow watery stool (4 points). Mice with scores of ≥2 meant diarrhea occurrence, while mice with scores of 1 meant no diarrhea. At the end of each experiment, all infected or drug-treated suckling mice were humanely euthanized via CO2 asphyxiation.
# Seven-day-old BALB/c suckling mice meeting the weight criteria within each litter were randomly assigned to experimental groups. Each litter was allocated to ensure one to three suckling mice per experimental group (variations dependent on the total number of groups). Data from suckling mice assigned to the same group across multiple litters were aggregated to achieve a total sample size of n = 3–6 per experimental group. Then, the suckling mice were orally inoculated with 1 × 10^6 PFU of the SA11 strain or 10 × DD50 of the EDIM strain, or with an equal amount of PBS as mock infection. For SA11 infection, the suckling mice were orally treated once with indicated doses of drugs or with an equal volume of DMSO as control at 2 h p.i. For EDIM infection, the suckling mice were orally treated with 0.2 mg/kg/day NVP-HSP990, 30 mg/kg/day ribavirin, or an equal amount of DMSO as control from 2 days post-infection (d p.i.) to indicated time points. Diarrhea scores and body weight were monitored from day 0 to day 7 post-infection in the SA11 infection model, and from day 0 to day 9 post-diarrhea occurrence (2–11 d p.i.) in the EDIM infection model. Blinding was applied throughout data collection and analysis.
# The RV-infected suckling mice were sacrificed by CO2 asphyxiation at the indicated times, and small intestines (including duodenum, jejunum, and ileum) or colon was homogenized in 0.3 mL DMEM, centrifuged at 12,000 × g for 5 min at 4°C, and the supernatant was collected. Virus contents in the supernatant were titrated with PFA as described above. Viral antigens in the supernatant were detected with enzyme-linked immunosorbent assay (ELISA) kits for RV (CUSABIO, China) following the manufacturer’s instructions. For qPCR analysis of RV protein expression, the intestines were longitudinally split and washed in 1 mL DMEM by shaking for 30 s. Then, the tissues were cut into 0.5 cm segments, incubated in Hank’s buffer containing 2.5 mM EDTA-Na2 and 1 mM dithiothreitol (Sangon Biotech, China) at 37°C with rotation at 200 rpm for 30 min, filtered with a 70 µm strainer. Then the epithelial cells were pelleted by centrifugation at 500 × g for 5 min, purified with 20% Percoll (Cytiva, Sweden), and lysed in Trizol for RNA extraction and further qPCR analysis.
# The jejunum and ileum of suckling mice were fixed in 4% paraformaldehyde for 24 h, washed with PBS twice, and then subjected to paraffin embedding and slicing at 5 µm thickness. The sections were stained with hematoxylin and eosin (Beyotime, China) and observed with an Olympus BX51 microscope, and the data were processed by CaseViewer 2.4 software. For immunohistochemistry analysis, the fixed tissues were dehydrated in 30% sucrose, embedded in Optimal Cutting Temperature compound, frozen with liquid nitrogen, and cryosliced at 10 µm thickness. […]
# [2] = 1 mg/kg oral, once, 0 to 7 days post-infection
# [3] = oral, once at 2 h p.i., 24 h p.i., 1 × 10^6 PFU SA11
compound,measurement,setting,value
COc1cccc(-c2cc(F)ccc2[C@H]2Cc3nc(N)nc(C)c3C(=O)N2)n1 [NVP-HSP990],IC50,RV SA11 (G3P[2]) strain; SA11 strain in Caco-2 cells,7.47 ± 4.84 nM
same,IC50,RV SA11 (G3P[2]) strain; SA11 strain in HT-29 cells,3.85 ± 1.16 nM
same,IC50,RV SA11 (G3P[2]) strain; SA11 strain in MA104 cells,0.84 ± 0.17 nM
same,IC50,RV Wa (G1P[8]) strain; Wa strain in Caco-2 cells,4 ± 1.28 nM
same,IC50,RV Wa (G1P[8]) strain; Wa strain in HT-29 cells,4.69 ± 0.9 nM
same,IC50,RV Wa (G1P[8]) strain; Wa strain in MA104 cells,0.96 ± 0.13 nM
same,brain penetration,[1],brain-penetrating
same,oral bioavailability,[1],orally bioavailable
same,IC50,HSP90β,0.8 nM
same,body growth of RV-infected suckling mice,RV SA11 strain; [2],did not hinder
same,diarrhea of RV-infected suckling mice,RV SA11 strain; [2],significantly alleviated
same,RV-induced foamy degeneration in the ileal epithelium,"RV SA11 strain; SA11-infected mice, 1 mg/kg oral, 16 h p.i., hematoxylin/eosin",markedly attenuated
same,"infectious RV particles and viral antigens in intestinal contents, transcription of RV VP6 in intestinal epithelial cells","RV SA11 strain; duodenum, 1 mg/kg oral, 16 h p.i.",no significant differences
same,"infectious RV particles and viral antigens in intestinal contents, transcription of RV VP6 in intestinal epithelial cells","RV SA11 strain; jejunum and ileum, 1 mg/kg oral, 16 h p.i.",remarkably reduced
same,pathological changes in the ileum,"RV SA11 strain; mock-infected mice, NVP-HSP990 treatment alone, 1 mg/kg oral, hematoxylin/eosin",no appreciable pathological changes
same,ED50 for RV diarrhea occurrence,RV SA11 strain; [3],0.1423 mg/kg
same,ED50 for diarrhea score reduction,RV SA11 strain; [3],0.1355 mg/kg

# — PMC12817916, “A small-molecule HSP90 inhibitor, NVP-HSP990, alleviates rotavirus infection” (Journal of Virology, 2025)
